Data: patent publication US10975060B2, “High relaxivity gadolinium chelate compounds for use in magnetic resonance imaging” (BAYER PHARMA AKTIENGESELLSCHAFT, priority 2016, dated 2021)
“Also recorded” adds a separate entry of the source.

Columns and labels:
[1] = Gd-complex stabilities in human plasma at 37 °C, 15 d (released Gd3+ by HPLC-ICP-MS); format: in vitro ADME
Procedure: Gd-Complex Stabilities in Human Plasma at 37° C., 15 d
Example 1 was separately dissolved in human plasma at 1 mmol Gd/L. As a reference for released Gd^3+ 0.1 mmol/L Gadolinium chloride (GdCl3) was dissolved in human plasma. The plasma samples were incubated for 15 days at 37° C. under 5% CO2 atmosphere to maintain the pH at 7.4. Aliquots were taken at the start and end of the incubation. The amount of Gd^3+ released from the complexes was determined by HPLC-ICP-MS. Column: Chelating Sepharose (HiTrap, 1 mL). Solvent A: 10 mM BisTris-HCl pH 6.0. Solvent B: 15 mM HNO3. Gradient: 3 min at 100% A, from 3 to 10 min at 100% B. Flow 1 mL/min. Detection by ICP-MS, tuned to ^158Gd. The chromatograms, displaying the intensity of the detected Gd, were evaluated by peak area analysis. The size of the peak of Gd^3+, eluting after the change from solvent A to B, was recorded. For Example 1 the increase of this peak and thus the release of Gd^3 after 15 days was below the limit of quantification (<0.1% of the injected total amount of Gadolinium). Example 1 is stable under physiological conditions.

[2] = Dynamic CT diffusion phantom study (dialysis cassette in fetal bovine serum); format: physicochemical; conditions: dialysis cassette 20,000 MWCO, 20 mmol Gd/L, CT signal over 30 h
How it was run: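 Contrast agent at 20 mmol Gd/L in a 20 kDa MWCO dialysis cassette was placed in fetal bovine serum. Diffusion was followed by clinical CT at 100 kV and 104 mA at time points from 0 min to 30 h. Regions of interest were drawn on one central 2.4 mm slice per time point.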

[3] = Water solubility (exploratory, 10 mM Tris-HCl, 20 °C); format: physicochemical; conditions: water (10 mM Tris-HCl buffer), pH 7.4
Procedure: The exploratory water solubilities of the compounds were determined at room temperature (20° C.) in 0.5 mL buffer solution (10 mM Tris-HCl) in the microcentrifuge tubes (Eppendorf, 2.0 mL safe-lock caps). The solid compounds were added stepwise to the buffer solution. The suspension was mixed using a shaker (Heidolph Reax 2000) and treated 5 min in an ultrasound bath (Bandelin, Sonorex Super RK255H).

[4] = Relaxivity measurements at 1.4 T (MiniSpec mq60, 60 MHz, 37 °C) in water and human plasma; format: physicochemical; conditions: 1.41 T, normalized to Gd
How it was run: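 T1 by inversion recovery and T2 by CPMG, relaxation delay ≥5×T1, at three Gd concentrations between 0.05 and 2 mM in water or fresh citrated human plasma. Relaxivities r1, r2 taken as slopes of relaxation rate versus Gd concentration, verified by ICP-MS.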

[5] = Relaxivity measurements at 3.0 T (whole body MRI scanner, 37 °C) in water and human plasma; format: physicochemical; conditions: normalized to Gd, average ± standard deviation
How it was run: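 T1 relaxivity measured on a 3.0 T whole-body MRI scanner at 37 °C in water and fresh citrated human plasma; inversion-recovery sequence, TE 7.46 ms, TIs 50–4500 ms. Three concentrations per compound between 0.05 and 2 mM; ri derived from slope of Ri versus Gd-normalised concentration.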

[6] = Chemical stability: autoclaving at 121 °C for 20 min in 10 mM Tris-HCl pH 7.4, HPLC-ICP-MS; format: physicochemical; conditions: 5 mmol Gd/L in 10 mM Tris-HCl pH 7.4, 121 °C
Procedure: The aliquot removed before and after autoclaving was analyzed by HPLC-ICP-MS to determine the integrity of the compound.
HPLC: Column: Hypercarb 2.5 mm×15 cm. Solvent A: 0.1% formic acid in water. Solvent B: acetonitrile. Gradient from 100% A to 5% A+95% B in 10 min. Flow 1 ml/min. Detection by ICP-MS, tuned to ^158Gd. The chromatograms, displaying the intensity of the detected Gd, were visually compared. No changes in the chromatograms before and after autoclaving were detected. The compound was stable during the autoclaving procedure.

[7] = Contrast-enhanced magnetic resonance angiography (CE-MRA) at 1.5 T, intraindividual comparison; format: in vivo, New Zealand white rabbits; conditions: rabbits
Procedure: Reference compound 1 (Gadovist®), as an approved representative of the Gadolinium-based MRI contrast agents, was used in both dose protocols (100 μmol Gd/kg bw and 25 μmol Gd/kg bw) and compared to example compound 6 (25 μmol Gd/kg bw).
The contrast-enhanced magnetic resonance angiography study was performed at a clinical 1.5 T Scanner (Magnetom Avanto Fit, Siemens Healthcare, Erlangen, Germany). For optimal signal exploitation, a spine in combination with a body-flex coil was used for the data acquisition. The study was performed on male New Zealand white rabbits (weight 3.6-3.9 kg, n=4, Charles River Kisslegg). The animals received all 3 contrast protocols within one imaging session. The order of the contrast protocols was randomized between the animals.
All animals are initially anesthetized using a body weight-adjusted intramuscular injection of a mixture (1+2) of xylazine hydrochloride (20 mg/mL, Rompun 2%, Bayer Vital GmbH, Leverkusen, Germany) and ketamine hydrochloride (100 mg/mL, Ketavet, Pfizer, Pharmacia GmbH, Berlin, Germany) using 1 mL/kg body weight. The continuous anesthesia of the intubated animals (endotracheal tube, Rueschelit Super Safe Clear, cuff 3.0 mm, Willy Ruesch A G, Kernen, Germany) is achieved by the intravenous injection of 0.9 mg propofol per kilogram per hour (10 mg/mL, Propofol-Lipuro 1%, B. Braun Melsungen A G, Melsungen, Germany). The continuous intravenous injection is performed using a MR infusion system (Continuum MR Infusion System, Medrad Europe B. V., A E Beek, Germany). The tracheal respiration (SV 900C, Maquet, Rastatt, Germany) is performed with 55% oxygen, forty breaths per minute, and a breathing volume of 4 mL per kilogram body weight per minute.
Based on a localizer MRI sequence oriented in coronal, axial, and sagittal directions the anatomic course of the aorta is acquired. A small intravenous test bolus (0.2 mL, Reference compound 1 followed by 1.3 mL saline) was administered to determine the time to peak interval (descending aorta) using a test bolus sequence. The MRA delay time between the start of the contrast injection and the start of image acquisition was calculated by subtracting the time to k-space center from the time to peak interval. For MRA a 3D FLASH sequence (TR=3.3 ms, TE=1.2 ms, flip=25°) was acquired before and after injection of the contrast agent considering the delay time. Both measurements were performed within expiratory breath hold. The time interval for the intraindividual comparison between the different contrast agent applications was twenty to thirty minutes.
Quantitative image evaluation was performed on the subtraction images (post contrast—baseline). […]

[8] = Pharmacokinetic parameters of blood plasma levels after i.v. bolus in male rats (three compartment model); format: in vivo, rats (Han-Wistar)
Procedure: Pharmacokinetic parameters of Example 6 were determined in male rats (Han-Wistar, 235-270 g, n=3). The compound was administered as a sterile aqueous solution (53.8 mmol Gd/L) as a bolus in the tail vein of the animals. The dose was 0.1 mmol Gd/kg. Blood was sampled 1, 3, 5, 10, 15, 30, 60, 90, 120, 240, 360, 480, and 1440 min post injection and the Gd concentration was determined by Inductively Coupled Plasma Mass Spectrometry (ICP-MS Agilent 7500a, Waldbronn, Germany). The blood level was converted to plasma concentrations by division by 0.625 (plasma fraction of rat blood, assuming strictly extracellular distribution). As a control, 3 animals (Han-Wistar, 248-289 g), were treated in the same way with Reference Compound 1 (Gadovist®), a low molecular weight contrast agent.
The fit of the obtained data to a three compartment model (Phoenix-WinNonlin) yielded the pharmacokinetic parameters which are shown in Table 3.

[9] = subtraction images, carotid artery, aorta, renal arteries
[10] = i.v. bolus 0.1 mmol Gd/kg, mean, n=3

SMILES: CN(CC(=O)NCC(CNC(=O)CN(C)C(=O)CN1CCN(CC(=O)[O-])CCN(CC(=O)[O-])CCN(CC(=O)[O-])CC1)(CNC(=O)CN(C)C(=O)CN1CCN(CC(=O)[O-])CCN(CC(=O)[O-])CCN(CC(=O)[O-])CC1)CNC(=O)CN(C)C(=O)CN1CCN(CC(=O)[O-])CCN(CC(=O)[O-])CCN(CC(=O)[O-])CC1)C(=O)CN1CCN(CC(=O)[O-])CCN(CC(=O)[O-])CCN(CC(=O)[O-])CC1.[Gd+3].[Gd+3].[Gd+3].[Gd+3] [Example 1, Tetragadolinium [4,10-bis(carboxylatomethyl)-7-{3,13-dimethyl-8,8-bis({[(methyl{[4,7,10-tris(carboxylatomethyl)-1,4,7,10-tetraazacyclododecan-1-yl]acetyl}amino)-acetyl]amino}methyl)-2,5,11,14-tetraoxo-15-[4,7,10-tris(carboxylatomethyl)-1,4,7,10-tetraazacyclododecan-1-yl]-3,6,10,13-tetraazapentadec-1-yl}-1,4,7,10-tetraazacyclo-dodecan-1-yl]acetate]
- release of Gd3+ after 15 days ([1]; 1 mmol Gd/L, pH 7.4, below the limit of quantification): < 0.1 % of the injected total amount of Gadolinium
- stability under physiological conditions ([1]; 15 days): stable
- Diffusion half-live (20 kDa) [2]: 10.4 h
- Solubility [3]: >1000 mg/100 mL
- r1 human plasma [4]: 11.7 L/mmol/s
- r1 water [4]: 10.1 L/mmol/s
- r1 human plasma ([5]; human plasma): 10.3 ± 0.2 L/mmol/s
- r1 water ([5]; water): 9.1 ± 0.1 L/mmol/s
- appearance of the solution after autoclaving [6]: clear and colorless
- changes in the chromatograms (HPLC-ICP-MS) before and after autoclaving [6]: No changes
- stability during the autoclaving procedure [6]: stable

SMILES: CC(C)CN(CC(=O)NCC(CNC(=O)CN(CC(C)C)C(=O)CN1CCN(CC(=O)[O-])CCN(CC(=O)[O-])CCN(CC(=O)[O-])CC1)(CNC(=O)CN(CC(C)C)C(=O)CN1CCN(CC(=O)[O-])CCN(CC(=O)[O-])CCN(CC(=O)[O-])CC1)CNC(=O)CN(CC(C)C)C(=O)CN1CCN(CC(=O)[O-])CCN(CC(=O)[O-])CCN(CC(=O)[O-])CC1)C(=O)CN1CCN(CC(=O)[O-])CCN(CC(=O)[O-])CCN(CC(=O)[O-])CC1.[Gd+3].[Gd+3].[Gd+3].[Gd+3] [Example 6, Tetragadolinium {4,10-bis(carboxylatomethyl)-7-[3-isobutyl-8,8-bis({[(isobutyl{[4,7,10-tris(carboxylatomethyl)-1,4,7,10-tetraazacyclododecan-1-yl]acetyl}amino)acetyl]-amino}methyl)-15-methyl-2,5,11-trioxo-13-{[4,7,10-tris(carboxylatomethyl)-1,4,7,10-tetraazacyclododecan-1-yl]acetyl}-3,6,10,13-tetraazahexadec-1-yl]-1,4,7,10-tetraaza-cyclododecan-1-yl}acetate]
- Diffusion half-live (20 kDa) [2]: 15.0 h
- Solubility [3]: >1000 mg/100 mL
- r1 human plasma [4]: 14.1 L/mmol/s
- r1 water [4]: 11.6 L/mmol/s
- vascular contrast (MR-angiograms, qualitative) at 25 μmol/kg compared to reference compound 1 at 100 μmol/kg ([7]; example compound 6 at 25 μmol Gd/kg bw): No qualitative difference
- signal enhancement at vascular regions, 25 μmol/kg compared to reference compound 1 at reduced (identical) dose (25 μmol/kg) [7, 9]: significantly (p<0.001) higher
- signal enhancement at vascular regions, 25 μmol/kg compared to reference compound 1 at standard dose (100 μmol/kg) [7, 9]: No significant difference; also recorded: similar
- pharmacokinetic compared to that of the reference compound 1 ([8]; 0.1 mmol Gd/kg i.v.): very similar
- AUC∞ Area under the curve (to infinity) [8, 10]: 10801 µmol·min/L
- MRT Mean residence time [8, 10]: 40.7 min
- V1 + V2 Volume, compartments V1 + V2 [8, 10]: 0.14 L/kg
- V2 Volume, compartment V2 [8, 10]: 0.12 L/kg
- Vd, ss Volume of distribution at steady state [8, 10]: 0.27 L/kg
- t½ α Half-life, compartment V1 [8, 10]: 2.45 min
- t½ β Half-life, compartment V2 [8, 10]: 22.4 min
- t½ γ Half-life, compartment V3 [8, 10]: 1041 min
